Patent US20250108027A1, “TOPICAL DELIVERY OF EDTA COMPOSITIONS” (priority 2023, published 2025)
Values after ≈ are worked out from the molar mass of the structure shown.

Key:
[1] = tested on: S. epidermidis HC3-CA-1; assay: MBC in combination, checkerboard titration and subculture; conditions: in combination with tetracycline
Method: (§3) Microtiter plates were incubated at 37° C. for 24 h and the results were analyzed. Each test included a growth control without addition of any antimicrobials, as well as an uninoculated control column to ensure there was no contamination in the plate. The combination MIC was taken as the concentration where no growth was observed by optical density but the wells immediately adjacent had growth. To determine the MBC, 5 μL aliquots were removed from each well in the 96-well MIC plates above and used to inoculate a new microtiter plate that was filled with Mueller-Hinton media. This new microtiter plate was incubated at 37° C. for 24 h and growth was quantified by measuring the optical density in the wells.
(§4) The potential interaction of the two antimicrobials was determined by the FICI (fractional inhibitory concentration index) and FBCI (fractional bactericidal concentration index).

[2] = tested on: E. Coli HC1-R2A-1; assay: as above; conditions: in combination with tetracycline
Method: as §3, §4

[3] = tested on: E. Coli HC1-R2A-1; assay: MBC in isolation, subculture from MIC plates; assay type: cell-based
Method: (§1) This new microtiter plate was incubated at 37° C. and growth was quantified after 24 h by measuring the optical density in the wells.

[4] = tested on: S. epidermidis HC3-CA-1; assay: MBC in isolation, subculture from MIC plates; assay type: cell-based
Method: as §1

[5] = tested on: S. epidermidis HC3-CA-1; assay: MIC in combination, checkerboard titration; conditions: in combination with tetracycline
Method: as §3, §4

[6] = tested on: E. Coli HC1-R2A-1; conditions: alone, 37° C., 24 h
Method: (§2) Microbroth dilution in 96-well microtiter plates was performed on the E. coli and S. epidermidis strains. […] Each test was performed in duplicate. The MIC was determined as the lowest concentration where no growth was observed, but the adjacent wells had growth as determined by optical density.

[7] = tested on: E. Coli HC1-R2A-1; assay: MIC in combination, checkerboard titration; conditions: in combination with tetracycline
Method: as §3, §4

[8] = tested on: S. epidermidis HC3-CA-1; assay: MIC in isolation, microbroth dilution; assay type: cell-based
Method: as §2

| Structure (SMILES) | MBC in Combination, T-EDTA [1] | MBC in Combination, T-EDTA [2] | MBC in Isolation, T-EDTA ([3]; alone) | MBC in Isolation, T-EDTA ([4]; alone) | MIC in Combination, T-EDTA [5] | MIC in Isolation, T-EDTA [6] | MIC in Combination, T-EDTA [7] | MIC in Isolation, T-EDTA ([8]; alone, 37° C., 24 h) | MBC ([3]; Escherichia coli, read-out: MBC in Isolation, Tetracycline, alone) | MBC ([4]; Staphylococcus epidermidis, HC3CA1, read-out: MBC in Isolation, Tetracycline, alone) | MIC ([8]; Staphylococcus epidermidis, HC3CA1, read-out: MIC in Isolation, Tetracycline, alone, 37° C., 24 h) |
| --- | --- | --- | --- | --- | --- | --- | --- | --- | --- | --- | --- |
| O=C([O-])CN(CCN(CC(=O)[O-])CC(=O)[O-])CC(=O)[O-].[Na+].[Na+].[Na+].[Na+] [T-EDTA, tetrasodium EDTA] | 0.25 wt % | 0.25 wt % | 1 wt % | 4 wt % | 0.015 wt % | 1 wt % | 0.25 wt % | 0.0625 wt % |  |  |  |
| CN(C)[C@@H]1C(O)=C(C(N)=O)C(=O)[C@@]2(O)C(O)=C3C(=O)c4c(O)cccc4[C@@](C)(O)[C@H]3C[C@@H]12 [Tetracycline, tetracycline, reference compound] |  |  |  |  |  |  |  |  | 512 µg/mL (≈ 1150 µM) | 8 µg/mL (≈ 18 µM) | 8 µg/mL (≈ 18 µM) |
